Three compounds from patent US20040034049A1, “Promoters for the proliferation and differentiation of stem cells and/or neuron precursor cells” (priority 2003, published 2004) can be followed below.

The test system of this assay is rat mixed glia culture. Description: Neural neogenesis promoting effect in rat mixed glia culture (differentiation assay, β III tubulin positive cell count). Conditions: 120 h, 1 μM compound, 5 days differentiation, β III tubulin positive cells, % activity based on non-treatment control, read-out: Differentiation or neogenesis promoting activity (%). The text has this:
Neural Neogenesis Promoting Effect in Rat Mixture Glia Culture
A neonatal SD rat was purchased from Charles River Japan, Inc. A nylon cell strainer with 40 micron in diameter was purchased from Becton Dickinson. DMEM/F12 Medium, antibiotics, N2 additives were purchased from LIFE TECHNOLOGY. Anti-β III-tubulin antibody was purchased from Sigma. DAKO EnVision+/HRP kit was purchased from DAKO Japan. Other reagents were commercial products of analytical grade.
A rat mixed glia culture was made from a hippocampus of a neonatal SD rat of 2 days old. The neonate was anesthetized by ice-cooling, sacrificed by decapitation and the brain was taken out immediately. The meninx was removed carefully, and the […] was separated. The hippocampus was pulverized mechanically by passing through a nylon cell strainer with 40 micron in diameter. The cell dispersion was overlaid on serum, and the cells were fractionated by a non-continuous gradient centrifugation. The pellet was washed twice with a growth medium (DMEM/F12 supplemented with 10% FBS and antibiotics) and then dispersed. The mixed glia culture was inoculated onto a collagen-coated 96-well multiplate at the density of 1×10^5 cells per well, and incubated for 5 days.
After incubating for 5 days, the mixed glia culture was subjected to a differentiation assay. The growth medium was replaced with a serum-free medium (DMEM/F12 supplemented with N2 additives and antibiotics) and the test compound was added simultaneously. After allowing to undergo the differentiation for 5 days followed by fixation with 4% p-formaldehyde, a mouse anti-β III tubulin monoclonal antibody and DAKO EnVision+/HRP kit was used to effect an immunostaining.
The β III tubulin positive cells were counted, and the data in the presence (1 μM) of the Compound (I) and the absence (control) were compared.

Structures are written as SMILES.

Regarding `Cc1c(C)c2c(c(C)c1NCc1ccc(F)cc1)C(c1ccc(C(C)C)cc1)C(C)(C)O2` (stereo not drawn) [Example 19b, N-(4-fluorobenzyl)-3-(4-isopropylphenyl)-2,2,4,6,7-pentamethyl-2,3-dihydro-1-benzofuran-5-amine], the activity at 1 µM worked out at 468%.
In the case of `COc1cc2c(cc1OC)CN(c1c(C)c(C)c3c(c1C)[C@@H](c1ccc(C)cc1)C(C)(C)O3)C2` [Example 17a, (R)-5,6-dimethoxy-2-[2,2,4,6,7-pentamethyl-3-(4-methylphenyl)-2,3-dihydro-1-benzofuran-5-yl]isoindoline], the activity at 1 µM worked out at 344%.
Take `COc1cc2c(cc1OC)CN(c1c(C)c(C)c3c(c1C)C(c1ccc(C(C)C)cc1)C(C)(C)O3)C2` (stereo not drawn) [Example 11a, 5,6-dimethoxy-2-[3-(4-isopropylphenyl)-2,2,4,6,7-pentamethyl-2,3-dihydro-1-benzofuran-5-yl]isoindoline]: the activity at 1 µM is 478%.
